Experimental data taken from US20040014777A1, “Remedies for retinal nerve diseases containing 1,2-ethanediol derivatives or salts thereof” (Toyama Chemical Co., LTD., priority 2000, published 2004).

Tests used:
retinal ganglion cells [1] = test: Protective effect on retinal ganglion cells in a glaucoma model (India ink injection and angle photocoagulation); assay type: in vivo, Wistar white rats; details: T-588 100 mg/kg orally
Text: 1. Protective Effect on Retinal Ganglion Cells in a Glaucoma Model
Wistar white rats [male, body weight 290-310 g] were subjected to a general anesthesia by intraperitoneal injection of ketamine hydrochloride and xylazine hydrochloride. Subsequently, the rats were subjected to an instillation anesthesia with oxybuprocaine hydrochloride. After the measuring both the intraocular pressures with a pneumatonometer (Model Classic 30:Mentor, Norwell, Mass., U.S.A.), the anterior chamber of the right eye was punctured with a 30-gage needle to aspirate the aqueous humor, and then about 30 μL of 35% India ink was injected thereinto. […]
Immediately after the coagulation, ophthalmoscopy was performed in all the animals in order to confirm the occlusion of retina central artery. Five days after the angle photocoagulation, the intraocular pressure was measured to confirm an elevation of the intraocular pressure in the right eye. […] From the fluorescent microscopic photographs, the number of labeled cell was counted by means of an image analyzer. The labeling rate of retinal ganglion cell was calculated as a ratio of the number of labeled ganglion cells in the right eye to the number of labeled ganglion cells in the control eye (left eye).
On the eighth day from the angle photocoagulation, the number of alive retinal ganglion cells was counted and compared with that of a normal eye. […]

retinal ganglion cells [2] = test: Protective effect on retinal ganglion cells in a retinal ischemia-reperfusion rat model; assay type: in vivo, SD rats; details: fourteen days after retinal ischemia-reperfusion, n=8, control group 40%
Protocol: 2. Protective Effect on Retinal Ganglion Cells in a Retinal Ischemia-Reperfusion Rat Model
As a retinal ischemia-reperfusion model, the manner in Steven Roth et al. (Experimental Eye Research, Vol. 65, Pages 771-779, 1997) was used with partial modification.
As the test animals, SD rats (Japan SLC), 9 weeks old (body weight: about 300 g) were used. The operation was carried out under a halothane-anesthetized condition (introduction 5%, maintenance 2%). First, the animal was fixed on the table in a lateral decubitus, and the middle part of the skin between the external auditory canal and the external ocular angle was incised. After peeling off the temporal muscle from the cranium, the tissues surrounding the optic nerve were peeled off to expose the optic nerve. The retina central vessels were ligated together with the optic nerve with a 4-0 silk thread so as to avoid the damage of optic nerve. Thirty minutes after, the silk thread was released to reperfuse the blood flow. T-588 was orally administered 30 minutes before the ischemic treatment and just after the reperfusion. From the day next to the operation, T-588 was orally administered twice a day. […] The number of retinal ganglion cells was counted in the two region from the optic disk to 0.5 mm distant point and a ratio of the number of neurons in the ischemic eye to that in the normal eye was calculated on each individual. […]

[3] = test system: neuron cell death caused by amyloid β-protein; details: Society for Neuroscience Abstracts Vol. 24, 1998; cited from earlier work
nerve growth factor = details: WO96/12717; cited from earlier work

Compound: CCN(CC)CCOC[C@H](O)c1ccc2sccc2c1.Cl [T-588, (R)-1-(benzo[b]thiophen-5-yl)-2-[2-(N,N-diethylamino)ethoxy]ethanol hydrochloride]
- survival rate of retinal ganglion cells (tested eye compared with normal eye) (retinal ganglion cells [1]; eighth day from angle photocoagulation, n=9, control group 78%): 91%
- influence on the elevation of intraocular pressure (retinal ganglion cells [1]; glaucoma model rats): no influence
- survival rate of retinal ganglion cells (tested eye compared with normal eye) (retinal ganglion cells [2]; T-588 10 mg/kg orally twice a day): 57%
- survival rate of retinal ganglion cells (tested eye compared with normal eye) (retinal ganglion cells [2]; T-588 30 mg/kg orally twice a day): 70%
- effect against neuron cell death caused by amyloid β-protein [3]: protective effects
- effect on nerve growth factor activity (nerve growth factor): nerve growth factor activity-improving effect
